Laboratory results: patent US20120258975A1, “Potent Small Molecule Inhibitors of Autophagy, and Methods of Use Thereof” (Shanghai Institute of Organic Chemistry, priority 2009, published 2012)
Entries after “also recorded” stand apart in the source; their conditions may differ.

Assays:
PDE5 = PDE5 (Homo sapiens, UniProt O76074); assay: Determination of % inhibition of PDE5 activity; type: biochemical
bax/bak DKO MEF cells = assay: Etoposide induced cell death of bax/bak DKO cells; type: cell-based, mouse; details: MBCQ 10 μM; for cell death induced by etoposide: etoposide 8 μM, spautin 10 μM, 3-MA 10 mM, 8 h
Protocol: C, cells were collected for western blotting using anti-LC3 antibody. α-tubulin was used as a control. D-F, Bax/bak DKO cells were treated with spautin (10 μM) or indicated concentration, in the presence of or absent etoposide (8 μM) for 8 h or indicated time. […] F, Cells were collected for western blotting using anti-LC3 antibody. α-tubulin was used as a control.
Autophagy has been proposed to contribute to cell death in a number of apoptotic deficient cell types. For example, bax/bak double deficient mouse embryonic fibroblast cells (DKO mefs) are highly resistant to apoptosis (Wei, M. C., Zong, W. X., Cheng, E. H., Lindsten, T., Panoutsakopoulou, V., Ross, A. J., Roth, K. A., MacGregor, G. R., Thompson, C. B., and Korsmeyer, S. J. (2001). Proapoptotic BAX and BAK: a requisite gateway to mitochondrial dysfunction and death. Science 292, 727-730).

PtdIns3P = assay: Lipid dot blot assay for cellular PtdIns3P; type: cell-based, mouse; details: 10 μM, 3 h; basal and rapamycin treated cells
Protocol: FIG. 9 depicts results showing that MBCQ and C43 (spautin) selectively reduce the cellular levels of PtdIns3P. MEF cells were treated with DMSO (0.1%), RAPA (0.2 μM) alone, A, MBCQ (10 μM) or B, C43 (spautin) (10 μM) with or without RAPA (0.2 μM) for 3 h. The cellular PtdIns species were extracted and applied onto polyvinylidene fluoride membrane. The levels of PtdIns3P were detected using GST-PX domain protein and anti-GST antibody.
To further determine the effect of MBCQ on the cellular levels of PtdIns3P, a lipid dot blot assay was used. The cellular PtdIns species were extracted and applied onto polyvinylidene fluoride membrane. The levels of PtdIns3P was detected using GST-PX domain protein and anti-GST antibody. […] Taken together, it was concluded that MBCQ reduces the levels of PtdIns3P.

Vps34 complexes [1] = assay: Levels of transfected Vps34 complex proteins in 293T cells (western blot); type: cell-based; details: for levels of GFP-p150 and Atg14L: 10 μM, 4 h; for levels of flag-tagged Beclin1 and HA-Vps34: 12 h
LC3II in liver = assay: Autophagy in liver of rapamycin injected mice; type: in vivo; details: rapamycin 10 mg/kg, 40 mg/kg intraperitoneally every hour for 4 h
Protocol: FIG. 13 depicts results showing the effect of MBCQ and derivatives in vivo. (A) Mice were injected with rapamycin (10 mg/kg) alone as a positive control, or with C43 or MBCQ (40 mg/kg) intraperitoneally every hour for 4 h and then sacrificed at 5 th h. The autophagy levels in liver were analyzed by western blotting using anti-LC3 antibody. (B) C43 reduces the levels of autophagy induced by cerulein. Rats were injected intraperitoneally with cerulein (50 μg/kg) alone or with C43 (40 mg/kg) hourly for 4 times. The rats were sacrificed at one h after the last injection and the pancreas were isolated for western blotting analysis using anti-LC3 and anti-tubulin (as a control).
To begin to test the effect of MBCQ derivatives in vivo, the ability of MBCQ derivatives to inhibit autophagy in rapamycin injected mice was investigated. Mice were injected with rapamycin (10 mg/kg) alone as a positive control, or with C43 or MBCQ (40 mg/kg) intraperitoneally every hour for 4 h and then sacrificed at the fifth hour. The autophagy levels in liver were then analyzed by western blotting using anti-LC3 antibody. […] Thus, it was determined that C43 and MBCQ are both active in vivo in inhibiting autophagy.

Vps34 complexes [2] = assay: Levels of endogenous Beclin1, Vps34, Atg14L in H4 and 293T cells (western blot); details: for levels of endogenous Beclin1 in the presence of CHX: 293T cells, 6 h, versus CHX alone; for levels of endogenous Beclin1, Vps34 and Atg14L: H4 cells and 293T cells, 10 μM, 3-MA 10 mM
Protocol: Twenty-four hours after the transfection, the cells were treated with indicated compounds for 12 h. The cell lysates were analyzed by western blotting using anti-HA, anti-flag or anti-tubulin. […] The cell lysates were harvested and analyzed by western blotting using: anti-Beclin1, anti-Atg14, anti-Vps34 and anti-UVRAG. Anti-α-tubulin was used as loading controls. […] The cell lysates were harvested and analyzed by western blotting using: anti-Beclin1 and anti-LC3. Anti-α-tubulin was used as loading controls.

| SMILES | inhibiting activity towards PDE5 and other PDEs (PDE5; compared with MBCQ) | cell death induced by etoposide (bax/bak DKO MEF cells) | cellular levels of PtdIns3P (PtdIns3P) | levels of GFP-p150 and Atg14L (Vps34 complexes [1]) | levels of flag-tagged Beclin1 and HA-Vps34 (Vps34 complexes [1]) | degradation of GFP-Beclin1, pathway (Vps34 complexes [1]; with MG132 or NH4Cl) | levels of LC3II in liver (LC3II in liver) | levels of endogenous Beclin1 in the presence of CHX (Vps34 complexes [2]) | levels of endogenous Beclin1, Vps34 and Atg14L (Vps34 complexes [2]) | % Inhibition of PDE5 activity, Average (PDE5; Concentration = 0.2 μM) | % Inhibition of PDE5 activity, Average (PDE5; Concentration = 2 μM) | % Inhibition of PDE5 activity, Average (PDE5; Concentration = 20 μM) | levels of LC3II in etoposide treated cells (bax/bak DKO MEF cells) |
| --- | --- | --- | --- | --- | --- | --- | --- | --- | --- | --- | --- | --- | --- |
| Fc1ccc(CNc2ncnc3ccc(F)cc23)cc1 [C43, 6-fluoro-N-(4-fluorobenzyl)quinazolin-4-amine] | much reduced inhibiting activity | inhibits etoposide induced death | selectively reduced the cellular levels of PtdIns3P | reduced the levels | considerably lower | promotes the degradation of Beclin1 through the proteasomal pathway | significantly reduced the levels of LC3II | notably lower | reduce the levels of endogenous Beclin1, Vps34 and Atg14L | – | – | – | – |
| Clc1ccc2ncnc(NCc3ccc4c(c3)OCO4)c2c1 [MBCQ] | – | significantly reduced cell death; also recorded: inhibits etoposide induced death | selectively reduced the cellular levels of PtdIns3P | reduced the levels | considerably lower | – | significantly reduced the levels of LC3II | notably lower | reduce the levels of endogenous Beclin1, Vps34 and Atg14L | 54.4% | 91.0% | 98.8% | reduced in the presence of MBCQ |
